In this assay the test system is L. donovani-infected THP-1 macrophages, intracellular amastigote imaging. As to the kind of experiment: intracellular L. donovani amastigote inhibition, imaging, THP-1 host macrophages, host toxicity (AID 1159564).
Setting [1] is: measured here: THP-1 host cell toxicity.
[2] abbreviates: measured here: amastigotes per macrophage.

Structures are written as SMILES. pIC50: −log10 of the molar value. Activity calls are given as the source filed them. No rule for the calls is given here. A value given as a limit tells only on which side of the number the result lay.

As usually defined, the IC50 is the concentration at which inhibition is half-maximal. By pIC50 is commonly meant the IC50 on a negative log10 scale, so that one unit is a factor of ten.

Consider `COc1ccc(S(=O)(=O)Nc2ccc(CN3CCN(C(=O)c4cccc(C#N)c4)CC3)cc2)cc1`, for which the IC50 is > 50 µM (inactive). For the same compound, the negative logarithm of the IC50 (pIC50) under setting [1] was less than 4.30. Also, the pIC50 under setting [2] is less than 4.30.
For the compound `COc1cc(OC)cc(C(NS(=O)(=O)c2ccc(Cl)c(C(F)(F)F)c2)c2nccn2C)c1` (stereo unspecified), the pIC50 was 5.20. This compound also had a pIC50 under setting [1] of less than 4.30. Further, under setting [2], the pIC50 is 5.30.
The corresponding values for `O=C(Nc1nc(-c2ccccn2)cs1)N1C[C@H]2C[C@@]2(c2ccccc2)C1` are 6.30, 5.10 and 6.40.
For the compound `Cc1cccnc1NC(=O)c1cccc(OCc2c(C)noc2C)c1`, the negative logarithm of the IC50 (pIC50) was 4.70. The compound also showed a pIC50 under setting [1] of 5.20. Under setting [2], the pIC50 was 5.00.
The corresponding values for `CC(C)CC(=O)NC(c1cccs1)c1ccc2cccnc2c1O` (stereo unspecified) are 5.10, 5.80 and 5.49.
In the case of `Clc1ccc(C(CC2CCCCO2)Cn2cncn2)c(Cl)c1` (stereo unspecified), the IC50 is > 50 µM (inactive). The pIC50 under setting [1] was less than 4.30. Under setting [2], the pIC50 was less than 4.30.
Regarding `COc1ccc(C(=O)NC2CCN(CCn3c(=O)ccc4ncc(F)cc43)CC2)cc1Cl`, the IC50 is > 50 µM (inactive). The compound further gave a pIC50 under setting [1] of less than 4.30. The pIC50 under setting [2] is 4.80.
`c1ccc(Nc2nc3ccccc3[nH]2)nc1`: the negative logarithm of the IC50 (pIC50) is 5.10. This compound also had a pIC50 under setting [1] of 4.60. The pIC50 under setting [2] was 5.10.
As to `Cc1cc2ncn(-c3ccc([N+](=O)[O-])cc3C#N)c2cc1C`, the IC50 is > 50 µM (inactive). Moreover, the pIC50 under setting [1] was less than 4.30. Under setting [2], this compound showed a negative logarithm of the IC50 (pIC50) of less than 4.30.
As to `CC(Cn1ccnc1)NC(=O)COc1ccc(Cl)c(Cl)c1` (stereo unspecified), the IC50 was > 50 µM (inactive). Under setting [1], the pIC50 is less than 4.30. This compound also gave a pIC50 under setting [2] of less than 4.30.
`CCOc1ccc(Nc2ccc(S(=O)(=O)N3CCN(C)CC3)cc2[N+](=O)[O-])cc1OCC`: the negative logarithm of the IC50 (pIC50) is 5.10. Under setting [1], this compound had a pIC50 of 4.89. The compound further gave a pIC50 under setting [2] of 5.30.
For `COc1ccccc1C1CC(c2ccc(NS(C)(=O)=O)cc2)=NN1C(=O)c1cccs1` (stereo unspecified), in that order: 5.40, less than 4.30 and 5.60.
Turning to `C=CCn1nc([N+](=O)[O-])nc1Oc1ccc(Cl)cc1Cl`, the IC50 is > 50 µM (inactive). Besides, the pIC50 under setting [1] is 4.40. Also, the pIC50 under setting [2] was 4.40.
`O=[N+]([O-])c1ccc(C2=CC(c3ccccc3)=NCCN2)cc1`: the pIC50 is 4.70. In addition, the pIC50 under setting [1] is 4.40. For the same compound, under setting [2], the pIC50 is 5.10.
For `c1ccc(-c2nc(NC3CCCC3)c3ccccc3n2)nc1`, in that order: 5.70, 4.70 and 5.89.
For `Cc1nc(N2CC(C)OC(C)C2)sc1C(=O)Nc1ccc2c(c1)OCO2` (stereo unspecified), in that order: 5.10, less than 4.30 and 5.49.
For the compound `CNc1nc(C)nc(N2CCc3cc(C(=O)NCc4ccc(-c5ccn[nH]5)cc4Cl)ccc32)n1`, the pIC50 was 6.49. Under setting [1], this compound showed a pIC50 of less than 4.30. The negative-log IC50 (pIC50) under setting [2] was 6.40.
Consider `CC(=O)Nc1ccc(-c2csc(NC(=O)c3ccc([N+](=O)[O-])s3)n2)cc1`, for which the pIC50 is 6.00. Under setting [1], this compound showed a pIC50 of 4.89. For the same compound, the pIC50 under setting [2] was 6.10.
The corresponding values for `COc1ccc(OC)c(S(=O)(=O)N(Cc2c(F)cccc2F)[C@@H]2CCN(C#N)C2)c1` are 4.60, 4.70 and 4.70.
With `CCC(c1ccc(F)cc1)n1cncc1-c1cnn(C)c1` (stereo unspecified), the IC50 is > 50 µM (inactive). The pIC50 under setting [1] was less than 4.30. This compound also gave a pIC50 under setting [2] of less than 4.30.
`CCCCc1cc(Nc2cc(C3CCC3)[nH]n2)nc(N2CCC2C(N)=O)n1` (stereo unspecified): the pIC50 was 5.70. This compound showed a pIC50 under setting [1] of 6.00. The compound further gave a negative-log IC50 (pIC50) under setting [2] of 6.20.
For `Cc1sc(C)c(C(F)(F)F)c1CNCCCNc1cc(=O)c2ccccc2[nH]1`, in that order: 4.30, 4.49 and 4.60.
The corresponding values for `COc1ccc(-c2cnc(C)o2)cc1S(=O)(=O)Nc1ccc(C)cc1C` are 5.49, less than 4.30 and 5.60.
For `Nc1nc(-c2ccccc2)cc(-c2nc3ncccc3[nH]2)n1`, in that order: 5.60, less than 4.30 and 5.60.
Take `O=C(NCc1ccncc1)c1ccccc1N1CCCN(C(=O)Cc2ccc(F)c(F)c2)CC1`: the IC50 is > 50 µM (inactive). For the same compound, the pIC50 under setting [1] is less than 4.30. The pIC50 under setting [2] is less than 4.30.
Regarding `O=C(Nc1ccc(Br)c(Cl)c1)Nc1ccc2c(c1)OCO2`, the IC50 was > 50 µM (inactive). Under setting [1], this compound had a pIC50 of less than 4.30. Under setting [2], the negative-log IC50 (pIC50) was less than 4.30.
Turning to `Cc1nc2c(-c3cccs3)c(C)nn2c(NCCO)c1C`, the IC50 is > 50 µM (inactive). In addition, the pIC50 under setting [1] is less than 4.30. This compound showed a pIC50 under setting [2] of less than 4.30.

The record behind these values is PubChem BioAssay AID1159564 (GlaxoSmithKline (GSK), 2015).
